Legend:
[1] = tested on: RPE-NEO; assay: Model cell screen: CPPC complex localization and cell death, RPE-NEO; format: cell-based, human
Procedure: In the model screening cell lines, there was an indistinguishable threshold concentration of approximately 20 nM, which was required to show disruption of the CPPC complex by IHC at the spindle midzone and equatorial cortex of anaphase cells, indicating a failure in CPPC relocation. This similarity in the threshold effective concentration for target inhibition is, therefore, not influenced by overexpression of MYC. […] Similar data with other MYC-SL compounds were observed.

[2] = tested on: Calu6 tumor model; assay: Calu6 xenograft tumor model (tumor growth, body weight, tumor weight, Ki-67); format: in vivo; settings: Calu6 xenografted mice
Procedure: Xenografted mice were treated with novel antimitotic compounds LXY013, LW33R, and LG157, respectively (FIG. 4A). p-values in FIG. 4A are from Logrank analysis. Tumor growth curves and body weight over the course of the experiments are depicted with vehicle control in black, test compounds in gray (n=6). FIG. 4B is a set of images of tumors and a graph depicting tumor weight at an end-point of 20 days. FIG. 4C is a set of photomicrographs of immunohistochemistry analyses and its quantification, respectively, of Ki-67 expression in xenografts. For LG157, * is p<0.05. p-values in FIG. 4B and FIG. 4C are from multi-parametric analysis. **** is p<0.0001.
Additionally, the volume and weight of tumors in response to the compounds described herein were assessed (FIG. 4A-4B) as well as immunohistochemistry analyses and quantification of Ki-67 expression in xenografts (FIG. 4C).

[3] = tested on: panel of 98 human cancer cell lines; assay: Concentration-response in panel of 98 human cancer cell lines with MYC/MKLP2 biomarker statistical analysis (AUC, EC50, IC50, Emax, h); format: cell-based
Procedure: For passaging of cell lines prior to a […] (MTT) assay, cells were routinely split when reaching mid-log phase and not allowed to progress to confluence. For the determination of cytotoxicity, cells were plated in 96-well plates at 4,000 cells per well in a volume of 100 μL and cultivated for 15 to 24 hours to reach 20-30% confluence. Cells on the plate were then exposed in triplicate to test compounds at concentrations ranging from 0.06 nM to 10 μM by using 3-fold serial dilutions or a concentration range from 5 nM to 10 μM using 2-fold serial dilutions. Cells exposed to vehicle (0.1% DMSO) were used as a negative control. Three days after initiation of the treatment, 20 μL of MTT (stock solution 5 mg/mL) was added to each well before incubation at 37° C. for another 3-4 hours. The medium was then aspirated with a microplate washer (BioTek ELX50) before 50 μL of DMSO was added to each well. After incubation with shaking for 10 minutes, the 96-well plate was analyzed with a microplate reader (BioTek ELX808iu) at a wavelength of 570 nm. The relative cell number was calculated as (A570^Compound/A570^DMSO)×100%. […] Statistical analysis was performed in GraphPad Prism 8.0.2. Error bars were presented as mean±1 standard deviation.
The CellTiter-Glo® (CTG) assay determines levels of ATP, and therefore the metabolic health of cell grown in culture. […] Wells containing medium without cells were used as a baseline control to obtain a value for background luminescence. […] 150 μL of the mixture was transferred to a white 96-well microplate (Falcon, Cat. #353296) and the luminescence signal was recorded by a microplate reader (Tecan Spark).
To develop a comparative metric reflecting the level of MYC and/or MKLP2 in a given cell line, the signal intensity of the MYC and MKLP2 protein bands from immunoblot analysis were normalized to the intensity of the housekeeping protein β-ACTIN. […] Whole cell MYC and MKLP2 proteins were quantified in a panel of 98 human cancer cell lines, see Table 4, below. […]

In the case of `CNC(=O)c1cc(OC)cc(Oc2ncccc2-c2ccnc(C)c2)c1` [LG157], the cell death [1] is reported as “not RPE-NEO cells”, the “threshold concentration required to show disruption of the CPPC complex” value ([1]; IHC at spindle midzone and equatorial cortex of anaphase cells) is reported as “approximately 20 nM” and the tumor growth [2] is reported as “inhibition of tumor growth”. For the same compound, the “association of oncogenic alterations (TP53, RB, PTEN, RAS, BRAF, PI3K) with response” value ([3]; 89 of the 98 cell lines) was “no evidence was found that these alterations were associated with either sensitivity or resistance”, the “relation of MKLP2 protein level to response” value ([3]; 98 cell lines) was “lower protein levels of MKLP2, but not high, predicted a favorable response” and the “relation of MYC abundance to sensitivity” value ([3]; 98 cell lines) was “the abundance of MYC in the human cancer cell lines positively relates to sensitivity”.
